Reference: patent publication US4088778A, “Method for the treatment of hypertension” (priority 1975, dated 1978)

Assays:
[1] = Teratogenetic property test; format: in vivo, pregnant mice or pregnant rats; conditions: orally, 100 to 1200 mg/Kg
Description: (C) Teratogenetic Property Test:

[2] = Clinical Test I, double blind: general improvement; format: in vivo, human patients; conditions: for General improvement: Not Changed / General improvement: Partial Improvement / General improvement: Remarkable Improvement / General improvement: Slight Improvement / General improvement: Worsened: number of patients
Description: Two capsules were orally administered at one time, and the administration was conducted three times a day after eating. The period of the administration was principally 4 weeks or 6 weeks. During this period, the administration was performed continuously. Combined administration of drugs having the same function as that of TN (vitamin E drugs, nicotinic acid, its derivatives and peripheral vasolidators) was prohibited.
The general improvement was evaluated by the attendant physician based on subjective symptoms and test results according to the following scale:
i: remarkable improvement
When 2, 4 or 6 weeks had passed from the start of the administration, the improvement was evaluated based on the symptoms before the administration.

[3] = Clinical Experiment II: general improvement; format: in vivo, human patients
Description: 75 patients of hypertension or arteriosclerosis having subjective symptoms were tested. Some of them suffered from complications such as ischemia heart disease and cerebral thrombosis. They are detailed in Table 11.
Two capsules were administered at one time, and the administration was conducted 3 times per day after eating. The duration of the continuous administration was 4 weeks. Combined use of drugs having the same functions as those of TN (vitamin E drugs, nicotinic acid, its derivatives and peripheral vasolidators) and minor tranquilizers was prohibited.
With respect to patients of hypertension alone, the general improvement was evaluated collectively based on subjective symptoms and clinical test data to obtain results shown in Table 23.

For Cc1c(C)c2c(c(C)c1OC(=O)c1cccnc1)CCC(C)(CCCC(C)CCCC(C)CCCC(C)C)O2 (racemic) [TN, dl-α-tocopheryl nicotinate], the “influences on mother animals, embryos and newborn babies” value [1] was “no influences were observed”, the teratogenetic property [1] was “no teratogenetic property” and the “general improvement ratio over time” value ([2]; 2, 4, 6 weeks) was “the improvement ratio was increased every two weeks”. For the same compound, the “General improvement: Improvement Ratio” value ([2]; 2 weeks, total 38, P group 68.6 %) was 73.7%, the “significance of general improvement versus P group” value ([2]; 4 to 6 weeks) was “significantly better results were obtained in the TN group than in the P group” and the “General improvement: Improvement Ratio” value ([2]; 4 weeks, total 39, P group 61.1 %, P = 0.0127) was 87.2%. For the same compound, the “General improvement: Improvement Ratio” value ([2]; 6 weeks, total 21, P group 63.6 %, P = 0.0094) was 95.2%, the “General improvement: Not Changed” value ([2]; 2 weeks, total 38) was 9 and the “General improvement: Partial Improvement” value ([2]; 2 weeks, total 38) was 13. The “General improvement: Remarkable Improvement” value ([2]; 2 weeks, total 38) was 6, the “General improvement: Slight Improvement” value ([2]; 2 weeks, total 38) was 9 and the “General improvement: Worsened” value ([2]; 2 weeks, total 38) was 1. The “General improvement: Not Changed” value ([2]; 4 weeks, total 39) was 5, the “General improvement: Partial Improvement” value ([2]; 4 weeks, total 39) was 14 and the “General improvement: Remarkable Improvement” value ([2]; 4 weeks, total 39) was 6. The “General improvement: Slight Improvement” value ([2]; 4 weeks, total 39) was 14, the “General improvement: Worsened” value ([2]; 4 weeks, total 39) was 0 and the “General improvement: Not Changed” value ([2]; 6 weeks, total 21) was 1. The “General improvement: Partial Improvement” value ([2]; 6 weeks, total 21) was 7, the “General improvement: Remarkable Improvement” value ([2]; 6 weeks, total 21) was 8 and the “General improvement: Slight Improvement” value ([2]; 6 weeks, total 21) was 5. The “General improvement: Worsened” value ([2]; 6 weeks, total 21) was 0, the “General improvement: Improvement Ratio” value ([3]; P group 52.94, P < 0.05) was 86.36% and the “general improvement versus P group” value ([3]; conclusion of both clinical experiments, significance lower than 0.5%) was “significantly excellent over that in the P group at a level of significance lower than 0.5%”. For the same compound, the “general improvement versus P group” value ([3]; level of significance lower than 5%) was “excellent over that in the P group at a level of significance lower than 5%”, the “General improvement: Not Changed” value ([3]; number of patients, total 22) was 3 and the “General improvement: Partial Improvement” value ([3]; number of patients, total 22) was 7. The “General improvement: Remarkable Improvement” value ([3]; number of patients, total 22) was 4, the “General improvement: Slight Improvement” value ([3]; number of patients, total 22) was 8 and the “General improvement: Worsened” value ([3]; number of patients, total 22) was 0.
